{"source": "patent US20060270871A1", "about": "“P[…] I OF […] PROCESSES FOR ITS PREPARATION” (priority 2005, published 2006)", "key": {"[1]": {"conditions": "relative to (S)-(+)-pregabalin, type of activity not specified, cited from earlier work"}, "[2]": {"assay": "hygroscopicity of anhydrous pregabalin", "format": "physicochemical", "conditions": "moisture content less than about 0.3% w/w"}, "[3]": {"assay": "accelerated stability testing", "conditions": "anhydrous pregabalin, moisture content less than about 0.3% w/w"}}, "note": "Read-outs that look alike come from different tables or passages of the source.", "data": [{"molecule": "CC(C)C[C@@H](CN)CC(=O)O", "note": "(single isomer, unassigned) [(R)-(−)-enantiomer of pregabalin]", "values": [{"measurement": "times less active when compared with the (S)-(+)-enantiomer", "setting": "[1]", "result": "about 40 times"}, {"measurement": "times less active when compared with the (S)-(+)-enantiomer", "setting": "[1]; listed as (R)-(−)-enantiomer", "result": 40, "unit": "times"}]}, {"molecule": "CC(C)CC(CN)CC(=O)O", "note": "(stereo in doubt) [anhydrous pregabalin, (S)-(+)-3-aminomethyl-5-methyl-1-hexanoic acid]", "values": [{"measurement": "hygroscopicity", "setting": "[2]", "result": "non-hygroscopic"}, {"measurement": "stability during the accelerated stability testing", "setting": "[3]", "result": "stable"}]}]}
